Experimental data published in patent US20250213489A1, “OSMOTIC TABLETS OF DEXPRAMIPEXOLE AND METHODS OF MANUFACTURING AND USE THEREOF” (Areteia Therapeutics, Inc., priority 2023, published 2025).
Structures can show the parent of a compound that is named as a salt.

What was measured:
[1] = during tablet manufacture and storage
Excerpt: The chiral purity might be determined by analyzing a sample of dexpramipexole, or a pharmaceutically acceptable salt thereof, by high performance liquid chromatography (HPLC).

[2] = test system: eosinophils; settings: human blood and tissues; cited from earlier work
[3] = test system: dopamine receptors; settings: cited from earlier work

Row | chiral purity over time [1] | Compound | effect on eosinophil counts [2] | affinity for dopamine receptors compared to pramipexole [3]
1 | did not change over time | CCCN[C@@H]1CCc2nc(N)sc2C1 [dexpramipexole dihydrochloride monohydrate] |  | 
2 |  | CCCN[C@@H]1CCc2nc(N)sc2C1 [dexpramipexole, (6R)-2-amino-4,5,6,7-tetrahydro-6-(propylamino)benzothiazole] | selectively and significantly lower eosinophil counts | greatly reduced
